pIC50: −log10 of the molar value. Where two headings read alike, the source gives them in different places.

The target in series [1] is HIV-1 gp41 (C peptide region), from HXB2 gp160 envelope on pseudotyped virus (HIV-1 (HXB2)) (UniProt P04578). Put plainly: cell-based or functional assay.
Series [2] can be described thus: Sedimentation equilibrium (analytical ultracentrifugation). It counts as physicochemical. As to conditions: for Mobs/Mcalc: 20 µM peptide solutions in PBS, 3.0 being a discrete trimer. The method, then:
Sedimentation Equilibrium. All measurements were recorded on a Beckman XL-A analytical ultracentrifuge equipped with an An-60 Ti rotor. Lyophilized peptide was resuspended in water, and the peptide concentration was determined (Edelhoch, 1967). The solution was diluted to 100-200 µM and then dialized overnight against PBS. Following dialysis, the concentration was redetermined and the appropriate dilutions were made, using the dialysis buffer. The samples were centrifuged at speeds ranging from 19,000 to 25,000 RPM.
(§1) The following Table summarizes the biophysical data and inhibitory activity for the chimeric coiled coil N peptides. The first column (θ222nm) is circular dichroism data, representing the helicity of each peptide. The lower the number, the more helical. The second column is the melting temperature and signifies the temperature at which half of the peptide is unfolded. The next column (Mobs/Mcalc) signifies the oligomeric state of the peptide, with 3.0 being a discrete trimer. The final column is the concentration at which each peptide is at half maximal inhibitory potency for viral infection. Table 1. Biophysical data and HIV-1 inhibitory activity
(§2) The second column is the ellipticity at 222 nm of a 20 µM solution of peptide in PBS. The third column lists the midpoint of thermal denaturation of 10 µM solutions of peptide in PBS.

The nature of series [3]: Circular dichroism (ellipticity at 222 nm, helicity). It counts as physicochemical. As to conditions: IZN17 at 20 µM. As to the method: (§3) Circular Dichroism. All CD measurements were performed on an Aviv 62 DS cirucular dichroism spectrometer. Standard scans were performed on 10 µM solutions of peptide in PBS (50 mM sodium phosphate, 150 mM sodium chloride [pH 7.4]) from 200 to 260 nm in a 1 cm pathlength cuvette with a 5 second averaging time. The mean residue ellipticity (θ) was calculated by dividing the raw signal by peptide concentration (M), pathlength (mm) and number of amino acids. Percent helicity was calculated according to Chen et al. (Biochemistry, 13, 1974, p3350). Thermal denaturation scans of 10 µM peptide solutions in PBS were recorded at 222 nm. The peptide was heated at two degree intervals starting at 4°C, with an equilibration time of 1.5 minutes and an averaging time of 60 seconds.
as §1, with “Biophysical data and HIV-1 inhibitory activity” left out

A short description of series [4]: Thermal denaturation followed by circular dichroism at 222 nm. It counts as physicochemical. As to the method:
as §3, §1, §2
(In general: Circular dichroism is the unequal absorption of left and right circularly polarised light.)

The next series relates to HIV-1. As to the method: HIV Infectivity Assay. Inhibitory activity was determined in an HIV luciferase assay (Chen et al., 1994). Specifically, virus was made by cotransfecting 293T cells with an HIV-1 genome containing a frame-shift mutation in env and luciferase replacing the nef gene (NL43LucR-E-) along with pCMVHXB2, an expression vector with the HXB2 gp160 gene. The resultant virus is only viable for one round of infection since its genome lacks the envelope gene. The cellular debris was removed by low-speed centrifugation. The remaining viral supernatant was used to infect HOS-CD4/Fusion cells (N. Landau, National Institutes of Health AIDS Reagent Program) in the presence of the potentially inhibitory peptides. Two days post-infection, the cells were lysed and luciferase activity was monitored on a Wallac AutoLumat LB953 luminometer (Gaithersburg, MD). IC50s (the peptide concentration at which half of the viral infection is inhibited) were calculated by fitting the data to a Langmuir equation [y = k/(1+[peptide]/IC50)], where y = luciferase activity and k is a scaling constant.

In the case of IZN17 (peptide), the IC50 (nm), HIV-1 luciferase viral infectivity assay (HXB2 env pseudotyped virus on HOS-CD4/Fusin cells) in series [1] amounted to 5.6 nM.
On to “Ac-YGGIKKEIEAIKKEQEAIKKKIEAIEKEIVQARQLLSGIVQQQNNLLRAIEAQQH-NH2 [IZN26]”, for which, in series [2], the Mobs/Mcalc entry was “∼2.87”.
With “Ac-IKKEIEAIKKEQEAIKKKIEAIEKLLQLTVWGIKQLQARIL-NH2 [IZN17]”, in series [3], the “helicity (in words)” value is “helical”. The Mobs/Mcalc in series [2] is reported as 3.05. Besides, the “oligomeric state (in words)” value in series [2] (sedimentation equilibrium, IZN17 at 20 µM) is “discretely trimeric”. For the same substance, the “thermal denaturation temperature relative to IQN17” value in series [4] (In 2 M GuHCl) is listed as “ten degrees higher”. For the same substance, in series [4] (midpoint of thermal denaturation of 10 µM solutions of peptide in PBS), the “Melting Temperature” value is over 100 °C. The “melt (thermal unfolding)” value in series [4] (no denaturant) was “above 100 °C”. For the same substance, the negative-log IC50 (pIC50) in the series with HIV-1 (concentration of peptide at which half of viral infectivity is inhibited, HOS-CD4/Fusion cells, HXB2 envelope, tentative values) is 8.25; in the series with HIV-1 (read-out: IC50 in the viral infectivity assay, viral infectivity assay) it was about 8.25.

Broadly, the pIC50 is the IC50 on a negative log10 scale, so that one unit is a factor of ten.

The record behind these values is patent EP1353942B1, “PEPTIDE INHIBITORS OF HIV ENTRY” (WHITEHEAD INSTITUTE FOR BIOMEDICAL RESEARCH, priority 2000, dated 2010).
